Data reported in patent US12077503B2, “Substituted cyclic amides and their use as herbicides” (FMC CORPORATION, priority 2015, dated 2024).

Experiments:
Assay type in all cases: in vivo
[1] = tested on: wheat (Triticum aestivum); assay: Test A postemergence; details: Triticum aestivum, post-emergence, 240 h
Method in brief: (§1)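 Preemergence soil spray on seeded pots or post-emergence spray on 1–2 leaf plants, in loam–sand blend. Greenhouse ~10 d. Visual rating 0–100 against untreated plants.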

[2] = tested on: Galium (catchweed bedstraw, Galium aparine); assay: Test A postemergence; details: Galium, post-emergence, 240 h
Method in brief: as §1

[3] = tested on: ryegrass, Italian (Italian ryegrass, Lolium multiflorum); assay: Test A postemergence; details: Lolium multiflorum, post-emergence, 240 h
Method in brief: as §1

[4] = tested on: pigweed (Amaranthus retroflexus); assay: Test A postemergence; details: Amaranthus retroflexus, post-emergence, 240 h
Method in brief: as §1

[5] = tested on: ragweed (common ragweed, Ambrosia elatior); assay: Test A postemergence; details: Ambrosia artemisiifolia, post-emergence, 240 h
Method in brief: as §1

Kochia (Kochia scoparia) [6] = assay: Test A postemergence; details: Bassia scoparia, post-emergence, 240 h
Method in brief: as §1

[7] = tested on: giant foxtail (Setaria faberii); assay: Test A postemergence; details: Setaria faberi, post-emergence, 240 h
Method in brief: as §1

corn (Zea mays) = assay: Test A postemergence; details: Zea mays, post-emergence, 240 h
Method in brief: as §1

[8] = tested on: barnyardgrass (Echinochloa crus-galli); assay: Test A postemergence; details: Echinochloa crus-galli, post-emergence, 240 h
Method in brief: as §1

[9] = tested on: blackgrass (Alopecurus myosuroides); assay: Test A postemergence; details: Alopecurus myosuroides, post-emergence, 240 h
Method in brief: as §1

[10] = tested on: ducksalad (Heteranthera limosa); assay: Test B flooded paddy test; details: Heteranthera limosa, 250 g ai/ha, Flood; 0 to 100 scale where 0 is no effect and 100 is complete control; read-out: Ducksalad plant response rating
Method in brief: (§2)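 Compound goes directly into floodwater once pots are flooded 3 cm above soil, targeting plants at two leaves; the water depth is then held for the test duration. Plants sit 13–15 d in a greenhouse and are rated visually, 100 denoting complete control.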

[11] = tested on: barnyardgrass (Echinochloa crus-galli); assay: Test B flooded paddy test; details: Echinochloa crus-galli, 250 g ai/ha, Flood; 0 to 100 scale where 0 is no effect and 100 is complete control; read-out: Barnyardgrass plant response rating
Method in brief: as §2

rice (Oryra sativa) = assay: Test B flooded paddy test; details: Oryza sativa, 250 g ai/ha, Flood; 0 to 100 scale where 0 is no effect and 100 is complete control; read-out: Rice plant response rating
Method in brief: as §2

[12] = tested on: sedge, umbrella (small-flower umbrella sedge, Cyperus difformis); assay: Test B flooded paddy test; details: Cyperus difformis, 250 g ai/ha, Flood; 0 to 100 scale where 0 is no effect and 100 is complete control; read-out: Sedge, Umbrella plant response rating
Method in brief: as §2

[13] = tested on: ryegrass, Italian (Italian ryegrass, Lolium multiflorum); assay: Test A preemergence; details: Lolium multiflorum, pre-emergence, 240 h, 0 to 100 scale where 0 is no effect and 100 is complete control, read-out: Ryegrass, Italian plant response rating
Method in brief: as §1

[14] = tested on: pigweed (Amaranthus retroflexus); assay: Test A preemergence; details: Amaranthus retroflexus, pre-emergence, 240 h, 0 to 100 scale where 0 is no effect and 100 is complete control, read-out: Pigweed plant response rating
[15] = tested on: ragweed (common ragweed, Ambrosia elatior); assay: Test A preemergence; details: Ambrosia artemisiifolia, pre-emergence, 240 h, 0 to 100 scale where 0 is no effect and 100 is complete control, read-out: Ragweed plant response rating
Method in brief: as §1

Kochia (Kochia scoparia) [16] = assay: Test A preemergence; details: Bassia scoparia, pre-emergence, 240 h, 0 to 100 scale where 0 is no effect and 100 is complete control, read-out: Kochia plant response rating
Method in brief: as §1

[17] = tested on: giant foxtail (Setaria faberii); assay: Test A preemergence; details: Setaria faberi, pre-emergence, 240 h, 0 to 100 scale where 0 is no effect and 100 is complete control, read-out: Foxtail, Giant plant response rating
Method in brief: as §1

[18] = tested on: barnyardgrass (Echinochloa crus-galli); assay: Test A preemergence; details: Echinochloa crus-galli, pre-emergence, 240 h, 0 to 100 scale where 0 is no effect and 100 is complete control, read-out: Barnyardgrass plant response rating
Method in brief: as §1

[19] = 125 g ai/ha, preemergence, approx. 10 d

CN1C[C@H](c2cc(C(F)F)cs2)[C@@H](C(=O)Nc2ccc(F)c(F)c2F)C1=O [Compound 1083]
plant injury at 125 g/ha ([1]; 125 g ai/ha, postemergence, visual injury on 0 to 100 scale (0 no effect, 100 complete control), approx. 10 d, read-out: Wheat plant response rating): 40%
plant injury at 31 g/ha ([1]; Postemergence, 31 g ai/ha, visual injury after approx. 10 d, 0 to 100 scale, 0 no effect, 100 complete control, read-out: Plant response rating, Wheat): 40%
pest or weed control at 125 g/ha ([2]; 125 g ai/ha, postemergence, visual injury on 0 to 100 scale (0 no effect, 100 complete control), approx. 10 d, read-out: Galium plant response rating): 70%
pest or weed control at 31 g/ha ([2]; Postemergence, 31 g ai/ha, visual injury after approx. 10 d, 0 to 100 scale, 0 no effect, 100 complete control, read-out: Plant response rating, Galium): 60%
pest or weed control at 125 g/ha ([3]; 125 g ai/ha, postemergence, visual injury on 0 to 100 scale (0 no effect, 100 complete control), approx. 10 d, read-out: Ryegrass, Italian plant response rating): 20%
pest or weed control at 31 g/ha ([3]; Postemergence, 31 g ai/ha, visual injury after approx. 10 d, 0 to 100 scale, 0 no effect, 100 complete control, read-out: Plant response rating, Ryegrass, Italian): 0%
pest or weed control at 125 g/ha ([4]; 125 g ai/ha, postemergence, visual injury on 0 to 100 scale (0 no effect, 100 complete control), approx. 10 d, read-out: Pigweed plant response rating): 20%
pest or weed control at 31 g/ha ([4]; Postemergence, 31 g ai/ha, visual injury after approx. 10 d, 0 to 100 scale, 0 no effect, 100 complete control, read-out: Plant response rating, Pigweed): 0%
pest or weed control at 125 g/ha ([5]; 125 g ai/ha, postemergence, visual injury on 0 to 100 scale (0 no effect, 100 complete control), approx. 10 d, read-out: Ragweed plant response rating): 30%
pest or weed control at 31 g/ha ([5]; Postemergence, 31 g ai/ha, visual injury after approx. 10 d, 0 to 100 scale, 0 no effect, 100 complete control, read-out: Plant response rating, Ragweed): 0%
pest or weed control at 125 g/ha (Kochia (Kochia scoparia) [6]; 125 g ai/ha, postemergence, visual injury on 0 to 100 scale (0 no effect, 100 complete control), approx. 10 d, read-out: Kochia plant response rating): 40%
pest or weed control at 31 g/ha (Kochia (Kochia scoparia) [6]; Postemergence, 31 g ai/ha, visual injury after approx. 10 d, 0 to 100 scale, 0 no effect, 100 complete control, read-out: Plant response rating, Kochia): 20%
pest or weed control at 125 g/ha ([7]; 125 g ai/ha, postemergence, visual injury on 0 to 100 scale (0 no effect, 100 complete control), approx. 10 d, read-out: Foxtail, Giant plant response rating): 90%
pest or weed control at 31 g/ha ([7]; Postemergence, 31 g ai/ha, visual injury after approx. 10 d, 0 to 100 scale, 0 no effect, 100 complete control, read-out: Plant response rating, Foxtail, Giant): 80%
plant injury at 125 g/ha (corn (Zea mays); 125 g ai/ha, postemergence, visual injury on 0 to 100 scale (0 no effect, 100 complete control), approx. 10 d, read-out: Corn plant response rating): 40%
Corn plant response rating (crop injury, 0 = no effect, 100 = complete kill) at 31 g/ha (corn (Zea mays); Postemergence, 31 g ai/ha, visual injury after approx. 10 d, 0 to 100 scale, 0 no effect, 100 complete control): 20%
pest or weed control at 125 g/ha ([8]; 125 g ai/ha, postemergence, visual injury on 0 to 100 scale (0 no effect, 100 complete control), approx. 10 d, read-out: Barnyardgrass plant response rating): 90%
pest or weed control at 31 g/ha ([8]; Postemergence, 31 g ai/ha, visual injury after approx. 10 d, 0 to 100 scale, 0 no effect, 100 complete control, read-out: Plant response rating, Barnyardgrass): 90%
pest or weed control at 125 g/ha ([9]; 125 g ai/ha, postemergence, visual injury on 0 to 100 scale (0 no effect, 100 complete control), approx. 10 d, read-out: Blackgrass plant response rating): 60%
pest or weed control at 31 g/ha ([9]; Postemergence, 31 g ai/ha, visual injury after approx. 10 d, 0 to 100 scale, 0 no effect, 100 complete control, read-out: Plant response rating, Blackgrass): 50%
pest or weed control at 250 g/ha [10]: 95%
pest or weed control at 250 g/ha [11]: 90%
pest or weed control at 250 g/ha (rice (Oryra sativa)): 40%
pest or weed control at 250 g/ha [12]: 0%
pest or weed control at 31 g/ha ([13]; 31 g ai/ha, Preemergence): 20%
pest or weed control at 125 g/ha [13, 19]: 60%
pest or weed control at 31 g/ha ([14]; 31 g ai/ha, Preemergence): 0%
pest or weed control at 125 g/ha [14, 19]: 20%
pest or weed control at 31 g/ha ([15]; 31 g ai/ha, Preemergence): 0%
pest or weed control at 125 g/ha [15, 19]: 80%
pest or weed control at 31 g/ha (Kochia (Kochia scoparia) [16]; 31 g ai/ha, Preemergence): 20%
pest or weed control at 125 g/ha (Kochia (Kochia scoparia) [16]; [19]): 90%
pest or weed control at 31 g/ha ([17]; 31 g ai/ha, Preemergence): 100%
pest or weed control at 125 g/ha [17, 19]: 100%
pest or weed control at 31 g/ha ([18]; 31 g ai/ha, Preemergence): 90%
pest or weed control at 125 g/ha [18, 19]: 100%
